Each structure is given as a SMILES string. In brackets after ≈: the same amount, converted by molar mass. Bounds are passed on as bounds.

In test [1] the test system is collagen-induced arthritis (CIA) in male DBA/1 mice. The experiment in a line: CIA model, Example 3 (cumulative scores vs untreated controls). Type of test: in vivo. Conditions: Mus musculus. The method, then:
The CIA model data were acquired according to the following protocol: • 1. Male DBA/1 mice were anaesthetized by i.p. injection of ketamine/xylazine (1.25 mg/ml:0.25 mg/ml, 100 μl/mouse). • 2. Anaesthetized mice were immunized intradermally at the base of the tail with 0.1 or 0.2 ml of an emulsion composed of 100 or 200 μg bovine type II collagen in Complete Freund's Adjuvant (50 μl/spot x 2 or 4 spots). • 3. At day 21 after the immunization, mice received an intradermal boost of 100 μl of an emulsion composed of 100 μg bovine type II collagen in Incomplete Freund's Adjuvant (50 μl/spot x 2 spots) • 4. After onset of disease symptoms (usually 3-4 days after boost), tetracycline derivatives were administered daily into mice via intraperitoneal or oral routes for 8 to 15 days. Methotrexate (12 mg/kg/day) or dexmethasone (4 mg/kg/day) was used as a control for inflammation suppression. • 5. The disease severity was scored daily for 8-15 days after the appearance of the symptoms. Disease severity was graded as following: • a. Visual clinical score for the presence of inflammation in the fingers/toes of the forepaws and hindpaws: • 1. Erythema and mild swelling confined to the mid-foot (tarsals) or ankle joint • 2. Erythema and mild swelling extending from the ankle to the mid-foot • 3. Erythema and moderate swelling extending from the ankle to the metatarsal joints • 4. Erythema and severe swelling encompassing the ankle, foot, and digits. • b. Clinical swelling score for the presence of paw edema in the forepaws and hindpaws: • Paw thickness was measured daily by an engineering micrometer after isofluorane inhalation or ketamine/xylazine (1.25 mg/ml:0.25 mg/ml, 100 μl/mouse) i.p. injection.
Daily scores and paw swelling measurements for each treatment group of mice were added over the total observation period to obtain a cumulative score. Cumulative scores were compared between untreated controls and treated groups to determine tetracycline-induced inhibition.

In a further test the test system is E. coli 25922. The experiment in a line: Antibacterial activity MIC, Gram- (Table 9). Type of test: cell-based. The following applies: Escherichia coli, CAMHB, 35° C., approximately 18 hr. The method, then: (§1) 2 mg of each compound is dissolved in 100 μl of DMSO. The solution is then added to cation-adjusted Mueller Hinton broth (CAMHB), which results in a final compound concentration of 200 μg per ml. The tetracycline compound solutions are diluted to 50 μL volumes, with a test compound concentration of 0.098 μg/ml. Optical density (OD) determinations are made from fresh log-phase broth cultures of the test strains. Dilutions are made to achieve a final cell density of 1×10^6 CFU/ml. At OD=1, cell densities for different genera should be approximately:
(§2) 50 μl of the cell suspensions are added to each well of microtiter plates. The final cell density should be approximately 5×10^5 CFU/ml. These plates are incubated at 35° C. in an ambient air incubator for approximately 18 hr. The plates are read with a microplate reader and are visually inspected when necessary. The MIC is defined as the lowest concentration of the tetracycline compound that inhibits growth.

Another test deals with S. aureus RN450. The experiment in a line: Antibacterial activity MIC, Gram+ (Table 9). It counts as cell-based. Conditions: Staphylococcus aureus, CAMHB, 35° C., approximately 18 hr. The method, then:
as §1, §2

As a reminder, the inhibition in vivo is how much of the control response was suppressed. The low end stands for a response near the control, the high end for a response far below the control. Broadly, the MIC is the lowest concentration found to suppress growth. Low readings indicate inhibition by little substance, high ones a need for much substance. As to `CC(=O)c1ccc(O)c2c1C[C@H]1C[C@H]3CC(O)=C(C(N)=O)C(=O)[C@@]3(O)C(O)=C1C2=O` [BC], 25 mg/kg produced 72% inhibition in vivo in test [1]. Further, the minimal inhibitory concentration (MIC) against E. coli 25922 was over 64 µg/mL; against S. aureus RN450, 4 µg/mL (≈ 9.68 µM).

Regarding `CN(C)c1cc(C(F)(F)F)c(O)c2c1C[C@H]1C[C@H]3CC(O)=C(C(N)=O)C(=O)[C@@]3(O)C(O)=C1C2=O` [BD], in test [1], at 25 mg/kg the inhibition in vivo was 44%. The minimal inhibitory concentration (MIC) against E. coli 25922 was over 64 µg/mL; in the test on S. aureus RN450, 0.5 µg/mL (≈ 1.04 µM).

In turn, `CN(C)[C@@H]1C(O)=C(C(N)=O)C(=O)[C@@]2(O)C(O)=C3C(=O)c4c(O)ccc(-c5ccc6c(c5)OCO6)c4C[C@H]3C[C@@H]12` [B] came in with an inhibition in vivo at 25 mg/kg in test [1] of 23%. Further, the MIC with E. coli 25922 came to 64 µg/mL (≈ 120 µM); with S. aureus RN450, 0.13 µg/mL (≈ 0.243 µM).

As for `CC(=O)c1ccc(O)c2c1C[C@H]1C[C@H]3[C@H](N(C)C)C(O)=C(C(N)=O)C(=O)[C@@]3(O)C(O)=C1C2=O` [C], the inhibition in vivo at 12 mg/kg in test [1] worked out at 62%. In test [1], this compound displayed an inhibition in vivo at 25 mg/kg of 62%. Besides, the minimal inhibitory concentration (MIC) in the test with E. coli 25922 amounted to 0.13 µg/mL (≈ 0.285 µM); in the test with S. aureus RN450, 0.06 µg/mL (≈ 0.131 µM).

In the case of `CN(C)c1cc(C2CC2)c(O)c2c1C[C@H]1C[C@H]3CC(O)=C(C(N)=O)C(=O)[C@@]3(O)C(O)=C1C2=O` [Compound AV], the inhibition in vivo at 25 mg/kg in test [1] was 48%. Moreover, the MIC against E. coli 25922 was over 64 µg/mL; against S. aureus RN450, 1 µg/mL (≈ 2.2 µM).

`CN(C)c1cc(-c2ccccc2)c(O)c2c1C[C@H]1C[C@H]3[C@H](N(C)C)C(O)=C(C(N)=O)C(=O)[C@@]3(O)C(O)=C1C2=O` [Compound A] returned an inhibition in vivo at 25 mg/kg in test [1] of 42%. Moreover, the minimal inhibitory concentration (MIC) in the test with E. coli 25922 is over 64 µg/mL; in the test on S. aureus RN450, 1 µg/mL (≈ 1.87 µM).

Take `CCC(=O)c1cc(N(C)C)c2c(c1O)C(=O)C1=C(O)[C@]3(O)C(=O)C(C(N)=O)=C(O)[C@@H](N(C)C)[C@@H]3C[C@@H]1C2` [Compound M]: in test [1], the inhibition in vivo at 25 mg/kg was 25%. Besides, the MIC against E. coli 25922 is over 64 µg/mL; against S. aureus RN450, 8 µg/mL (≈ 15.6 µM).

As for `CC(=O)c1cc(N(C)C)c2c(c1O)C(=O)C1=C(O)[C@]3(O)C(=O)C(C(N)=O)=C(O)C[C@@H]3C[C@@H]1C2` [Compound T], in test [1], the inhibition in vivo at 12 mg/kg came to 10% and testing at 25 mg/kg gave an inhibition in vivo of 44%. In the test on E. coli 25922, this compound showed an MIC of over 64 µg/mL. 4 µg/mL (≈ 8.76 µM) was the least that counted as inhibitory against S. aureus RN450 (MIC).

Compound `CCCc1cc(N(C)C)c2c(c1O)C(=O)C1=C(O)[C@]3(O)C(=O)C(C(N)=O)=C(O)[C@@H](N(C)C)[C@@H]3C[C@@H]1C2` [E] showed an inhibition in vivo at 25 mg/kg in test [1] of 44%. The MIC against E. coli 25922 is over 64 µg/mL; in the test with S. aureus RN450, 2 µg/mL (≈ 4 µM).

In test [1], `CCc1ccc2c(c1O)C(=O)C1=C(O)[C@]3(O)C(=O)C(C(N)=O)=C(O)[C@@H](N(C)C)[C@@H]3[C@@H](O)[C@@H]1[C@H]2C` [G] came in with an inhibition in vivo at 25 mg/kg of 55%. For the same compound, the MIC turned out to be 16 µg/mL (≈ 33.9 µM) against E. coli 25922 and 0.5 µg/mL (≈ 1.06 µM) against S. aureus RN450.

In test [1], `CCc1cc(N(C)C)c2c(c1O)C(=O)C1=C(O)[C@]3(O)C(=O)C(C(N)=O)=C(O)[C@@H](N(C)C)[C@@H]3C[C@@H]1C2` [H] returned an inhibition in vivo at 25 mg/kg of 41%. Besides, the MIC against E. coli 25922 was over 64 µg/mL; against S. aureus RN450, 0.5 µg/mL (≈ 1.03 µM).

`CO/N=C(\C)c1cc(N(C)C)c2c(c1O)C(=O)C1=C(O)[C@]3(O)C(=O)C(C(N)=O)=C(O)[C@@H](N(C)C)[C@@H]3C[C@@H]1C2` [K] returned an inhibition in vivo at 25 mg/kg in test [1] of 30%. Further, the MIC with E. coli 25922 is over 64 µg/mL; with S. aureus RN450, 4 µg/mL (≈ 7.57 µM).

`CN(C)[C@@H]1C(O)=C(C(N)=O)C(=O)[C@@]2(O)C(O)=C3C(=O)c4c(O)ccc(C5=CCNCC5)c4C[C@H]3C[C@@H]12` [L] displayed an inhibition in vivo at 25 mg/kg in test [1] of 48%. Moreover, the minimal inhibitory concentration (MIC) was 64 µg/mL (≈ 129 µM) with E. coli 25922 and 2 µg/mL (≈ 4.04 µM) against S. aureus RN450.

In test [1], `CN(C)[C@@H]1C(O)=C(C(N)=O)C(=O)[C@@]2(O)C(O)=C3C(=O)c4c(O)ccc(-c5ccc(O)cc5)c4C[C@H]3C[C@@H]12` [N] yielded an inhibition in vivo at 25 mg/kg of 21%. Further, the MIC against E. coli 25922 worked out at 0.5 µg/mL (≈ 0.987 µM); against S. aureus RN450, 0.06 µg/mL (≈ 0.118 µM).

On to `CN(C)c1cc(-c2ncco2)c(O)c2c1C[C@H]1C[C@H]3[C@H](N(C)C)C(O)=C(C(N)=O)C(=O)[C@@]3(O)C(O)=C1C2=O` [O], for which the inhibition in vivo at 25 mg/kg in test [1] amounted to 26%. Further, the MIC was over 64 µg/mL with E. coli 25922 and 32 µg/mL (≈ 61 µM) against S. aureus RN450.

Consider `CN(C)c1cc(-c2ccsc2)c(O)c2c1C[C@H]1C[C@H]3[C@H](N(C)C)C(O)=C(C(N)=O)C(=O)[C@@]3(O)C(O)=C1C2=O` [P], for which, in test [1], testing at 25 mg/kg gave an inhibition in vivo of 34%. Further, the MIC against E. coli 25922 was over 64 µg/mL; against S. aureus RN450 it was 0.5 µg/mL (≈ 0.927 µM).

As to `CN(C)[C@@H]1C(O)=C(C(N)=O)C(=O)[C@@]2(O)C(O)=C3C(=O)c4ccccc4C[C@H]3C[C@@H]12` [Q], 25 mg/kg produced 28% inhibition in vivo in test [1]. The MIC in the test with E. coli 25922 is 32 µg/mL (≈ 80.3 µM); in the test with S. aureus RN450 it was 0.5 µg/mL (≈ 1.25 µM).

For the compound `CN(C)c1ccc(-c2cc(N(C)C)c3c(c2O)C(=O)C2=C(O)[C@]4(O)C(=O)C(C(N)=O)=C(O)[C@@H](N(C)C)[C@@H]4C[C@@H]2C3)cc1` [R], the inhibition in vivo at 25 mg/kg in test [1] stood at 32%. Also, the MIC in the test on E. coli 25922 is over 64 µg/mL; in the test with S. aureus RN450, 2 µg/mL (≈ 3.47 µM).

Compound `CN(C)c1cc(-c2ccc(C(N)=O)cc2)c(O)c2c1C[C@H]1C[C@H]3[C@H](N(C)C)C(O)=C(C(N)=O)C(=O)[C@@]3(O)C(O)=C1C2=O` [S] registered an inhibition in vivo at 25 mg/kg in test [1] of 46%. For the same compound, the MIC against E. coli 25922 and against S. aureus RN450 was over 64 µg/mL throughout.

On to `CN(C)c1cc(C(=O)O)c(O)c2c1C[C@H]1C[C@H]3CC(O)=C(C(N)=O)C(=O)[C@@]3(O)C(O)=C1C2=O` [U], for which 25 mg/kg produced 50% inhibition in vivo in test [1]. In addition, the MIC in the test on E. coli 25922 and against S. aureus RN450 was over 64 µg/mL each time.

Compound `CCCNC(=O)c1cc(N(C)C)c2c(c1O)C(=O)C1=C(O)[C@]3(O)C(=O)C(C(N)=O)=C(O)C[C@@H]3C[C@@H]1C2` [V] came in with an inhibition in vivo at 25 mg/kg in test [1] of 43%. Besides, the minimal inhibitory concentration (MIC) in the test with E. coli 25922 is over 64 µg/mL; against S. aureus RN450, 2 µg/mL (≈ 4 µM).

`CN(C)c1cc(-c2ncco2)c(O)c2c1C[C@H]1C[C@H]3CC(O)=C(C(N)=O)C(=O)[C@@]3(O)C(O)=C1C2=O` [X]: the inhibition in vivo at 25 mg/kg in test [1] was 40%. Further, the MIC is over 64 µg/mL in the test on E. coli 25922 and 2 µg/mL (≈ 4.15 µM) against S. aureus RN450.

Regarding `CN(C)c1cc(C(=O)N2CCCCC2)c(O)c2c1C[C@H]1C[C@H]3CC(O)=C(C(N)=O)C(=O)[C@@]3(O)C(O)=C1C2=O` [Y], at 25 mg/kg the inhibition in vivo in test [1] was 22%. The minimal inhibitory concentration (MIC) against E. coli 25922 and in the test on S. aureus RN450 was over 64 µg/mL in each case.

Compound `CCO/N=C(\C)c1cc(N(C)C)c2c(c1O)C(=O)C1=C(O)[C@]3(O)C(=O)C(C(N)=O)=C(O)[C@@H](N(C)C)[C@@H]3C[C@@H]1C2` [Z] returned an inhibition in vivo at 25 mg/kg in test [1] of 32%. The minimal inhibitory concentration (MIC) is over 64 µg/mL against E. coli 25922 and 4 µg/mL (≈ 7.37 µM) against S. aureus RN450.

Source of the values: patent US20100190755A1, “TETRACYCLINE COMPOUNDS FOR THE TREATMENT OF RHEUMATOID ARTHRITIS AND RELATED METHODS OF TREATMENT” (priority 2008, published 2010).
